Test results from PubChem BioAssay AID1918953 (Molecular Pharmacology Branch, DTP, NCI, 2023).
pIC50: −log10 of the molar value.

Test system: MDA-MB-231 complex spheroid viability
Test: Anticancer human tumor MDA-MB-231/ATCC cell line growth inhibition;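 note: drug exposure lasted 7 days starting on day 3 of spheroid growth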
Conditions: for pIC50: curve of first compound; for viability, T/C: stronger effect = lower value
Method in brief: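 Drug combinations with the LSD1 inhibitor iadademstat tested on tumor cells co-cultured as spheroids with endothelial cells and mesenchymal stem cells. Concentrations descended in half-log increments from clinical Cmax or 10 microM.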

[1] = second compound 0.1 µM, first compound 0.000316 µM
[2] = second compound 0.1 µM, first compound 0.001 µM
[3] = second compound 0.1 µM, first compound 0.00316 µM
[4] = second compound 0.1 µM, first compound 0.01 µM
[5] = second compound 0.1 µM, first compound 0.0316 µM
[6] = second compound 0.1 µM, first compound 0.1 µM
[7] = second compound 0.316 µM, first compound 0.000316 µM
[8] = second compound 0.316 µM, first compound 0.001 µM
[9] = second compound 0.316 µM, first compound 0.00316 µM
[10] = second compound 0.316 µM, first compound 0.01 µM
[11] = second compound 0.316 µM, first compound 0.0316 µM
[12] = second compound 0.316 µM, first compound 0.1 µM
[13] = second compound 1 µM, first compound 0.000316 µM
[14] = second compound 1 µM, first compound 0.001 µM
[15] = second compound 1 µM, first compound 0.00316 µM
[16] = second compound 1 µM, first compound 0.01 µM
[17] = second compound 1 µM, first compound 0.0316 µM
[18] = second compound 1 µM, first compound 0.1 µM
[19] = second compound 3.16 µM, first compound 0.000316 µM
[20] = second compound 3.16 µM, first compound 0.001 µM
[21] = second compound 3.16 µM, first compound 0.00316 µM
[22] = second compound 3.16 µM, first compound 0.01 µM
[23] = second compound 3.16 µM, first compound 0.0316 µM
[24] = second compound 3.16 µM, first compound 0.1 µM
[25] = second compound 10 µM, first compound 0.000316 µM
[26] = second compound 10 µM, first compound 0.001 µM
[27] = second compound 10 µM, first compound 0.00316 µM
[28] = second compound 10 µM, first compound 0.01 µM
[29] = second compound 10 µM, first compound 0.0316 µM
[30] = second compound 10 µM, first compound 0.1 µM

SMILES: CC(C)CC(NC(=O)CNC(=O)c1cc(Cl)ccc1Cl)B1OC(=O)CC(CC(=O)O)(C(=O)O)O1 (centres undefined) + NC1CC1c1ccc(-c2cccc(O)c2)cc1
- pIC50 (second compound 0.1 µM): 8.36
- pIC50 (second compound 0.316 µM): 8.51
- pIC50 (second compound 1 µM): 8.63
- pIC50 (second compound 3.16 µM): 8.60
- pIC50 (second compound 10 µM): 9.00
- viability, T/C [1]: 85.1%
- viability, T/C [2]: 93.9%
- viability, T/C [3]: 62.9%
- viability, T/C [4]: 14.6%
- viability, T/C [5]: 1.93%
- viability, T/C [6]: 1.29%
- viability, T/C [7]: 67.8%
- viability, T/C [8]: 73.3%
- viability, T/C [9]: 48.4%
- viability, T/C [10]: 11.8%
- viability, T/C [11]: 0.83%
- viability, T/C [12]: 0.29%
- viability, T/C [13]: 61.7%
- viability, T/C [14]: 66%
- viability, T/C [15]: 44.4%
- viability, T/C [16]: 13.8%
- viability, T/C [17]: 0.95%
- viability, T/C [18]: 0.24%
- viability, T/C [19]: 61.8%
- viability, T/C [20]: 73.7%
- viability, T/C [21]: 43.4%
- viability, T/C [22]: 12.7%
- viability, T/C [23]: 0.98%
- viability, T/C [24]: 0.37%
- viability, T/C [25]: 48%
- viability, T/C [26]: 55.2%
- viability, T/C [27]: 30.4%
- viability, T/C [28]: 7.98%
- viability, T/C [29]: 0.83%
- viability, T/C [30]: 0.27%

SMILES: NC1CC1c1ccc(-c2cccc(O)c2)cc1 (centres undefined)
- viability, T/C (compound 0.316 µM): 68.1% [middle of 25 runs]
- viability, T/C (compound 1 µM): 62.9% [middle of 25 runs]
- viability, T/C (compound 3.16 µM): 64.5% [middle of 25 runs]
- viability, T/C (compound 10 µM): 47.7% [middle of 25 runs]

SMILES: Cn1ncnc1C1c2n[nH]c(=O)c3cc(F)cc(c23)NC1c1ccc(F)cc1 (centres undefined) + NC1CCC(NC2CC2c2ccccc2)CC1
- pIC50 (second compound 0.1 µM): < 7.00
- pIC50 (second compound 0.316 µM): < 7.00
- pIC50 (second compound 1 µM): < 7.00
- pIC50 (second compound 3.16 µM): < 7.00
- pIC50 (second compound 10 µM): > 9.50
- viability, T/C [1]: 95.7%
- viability, T/C [2]: 97.2%
- viability, T/C [3]: 92.5%
- viability, T/C [4]: 81.9%
- viability, T/C [5]: 80.4%
- viability, T/C [6]: 78.7%
- viability, T/C [7]: 95.4%
- viability, T/C [8]: 95.6%
- viability, T/C [9]: 84.6%
- viability, T/C [10]: 80.7%
- viability, T/C [11]: 77.7%
- viability, T/C [12]: 75.2%
- viability, T/C [13]: 92.3%
- viability, T/C [14]: 89.9%
- viability, T/C [15]: 87.8%
- viability, T/C [16]: 81.3%
- viability, T/C [17]: 72.2%
- viability, T/C [18]: 70.7%
- viability, T/C [19]: 70.8%
- viability, T/C [20]: 68.9%
- viability, T/C [21]: 64.5%
- viability, T/C [22]: 60.4%
- viability, T/C [23]: 59.1%
- viability, T/C [24]: 60.9%
- viability, T/C [25]: 48.3%
- viability, T/C [26]: 50.3%
- viability, T/C [27]: 48.9%
- viability, T/C [28]: 42.2%
- viability, T/C [29]: 45.9%
- viability, T/C [30]: 44.6%

SMILES: CC(C)CC(NC(=O)C(Cc1ccccc1)NC(=O)c1cnccn1)B(O)O (centres undefined) + NC1CC1c1ccc(-c2cccc(O)c2)cc1
- pIC50 (second compound 0.1 µM): > 9.50
- pIC50 (second compound 0.316 µM): > 9.50
- pIC50 (second compound 1 µM): > 9.50
- pIC50 (second compound 3.16 µM): > 9.50
- pIC50 (second compound 10 µM): > 9.50
- viability, T/C [1]: 29.9%
- viability, T/C [2]: 1.88%
- viability, T/C [3]: 0.68%
- viability, T/C [4]: 0.5%
- viability, T/C [5]: 0.85%
- viability, T/C [6]: 1.08%
- viability, T/C [7]: 31.8%
- viability, T/C [8]: 0.28%
- viability, T/C [9]: 0.07%
- viability, T/C [10]: 0.06%
- viability, T/C [11]: 0.07%
- viability, T/C [12]: 0.14%
- viability, T/C [13]: 28.9%
- viability, T/C [14]: 0.45%
- viability, T/C [15]: 0.11%
- viability, T/C [16]: 0.08%
- viability, T/C [17]: 0.09%
- viability, T/C [18]: 0.15%
- viability, T/C [19]: 25.6%
- viability, T/C [20]: 0.41%
- viability, T/C [21]: 0.12%
- viability, T/C [22]: 0.15%
- viability, T/C [23]: 0.07%
- viability, T/C [24]: 1.91%
- viability, T/C [25]: 18.3%
- viability, T/C [26]: 0.24%
- viability, T/C [27]: 0.13%
- viability, T/C [28]: 0.11%
- viability, T/C [29]: 0.12%
- viability, T/C [30]: 1.1%

SMILES: Nc1ccn(C2OC(CO)C(O)C2(F)F)c(=O)n1 (centres undefined) + NC1CC1c1ccc(-c2cccc(O)c2)cc1
- pIC50 (second compound 0.1 µM): > 9.02
- pIC50 (second compound 0.316 µM): > 9.02
- pIC50 (second compound 1 µM): > 9.02
- pIC50 (second compound 3.16 µM): > 9.02
- pIC50 (second compound 10 µM): > 9.02
- viability, T/C (second compound 0.1 µM, first compound 0.000949 µM): 30.5%
- viability, T/C (second compound 0.1 µM, first compound 0.003 µM): 24.4%
- viability, T/C (second compound 0.1 µM, first compound 0.00949 µM): 22.2%
- viability, T/C (second compound 0.1 µM, first compound 0.03 µM): 19.4%
- viability, T/C (second compound 0.1 µM, first compound 0.0949 µM): 17.4%
- viability, T/C (second compound 0.1 µM, first compound 0.3 µM): 12%
- viability, T/C (second compound 0.316 µM, first compound 0.000949 µM): 28%
- viability, T/C (second compound 0.316 µM, first compound 0.003 µM): 23.6%
- viability, T/C (second compound 0.316 µM, first compound 0.00949 µM): 21.3%
- viability, T/C (second compound 0.316 µM, first compound 0.03 µM): 14.5%
- viability, T/C (second compound 0.316 µM, first compound 0.0949 µM): 14.1%
- viability, T/C (second compound 0.316 µM, first compound 0.3 µM): 12.9%
- viability, T/C (second compound 1 µM, first compound 0.000949 µM): 30.8%
- viability, T/C (second compound 1 µM, first compound 0.003 µM): 21.8%
- viability, T/C (second compound 1 µM, first compound 0.00949 µM): 22.4%
- viability, T/C (second compound 1 µM, first compound 0.03 µM): 15.6%
- viability, T/C (second compound 1 µM, first compound 0.0949 µM): 15.3%
- viability, T/C (second compound 1 µM, first compound 0.3 µM): 12.3%
- viability, T/C (second compound 3.16 µM, first compound 0.000949 µM): 33.8%
- viability, T/C (second compound 3.16 µM, first compound 0.003 µM): 23.9%
- viability, T/C (second compound 3.16 µM, first compound 0.00949 µM): 19.9%
- viability, T/C (second compound 3.16 µM, first compound 0.03 µM): 17.5%
- viability, T/C (second compound 3.16 µM, first compound 0.0949 µM): 15.8%
- viability, T/C (second compound 3.16 µM, first compound 0.3 µM): 11.3%
- viability, T/C (second compound 10 µM, first compound 0.000949 µM): 22.9%
- viability, T/C (second compound 10 µM, first compound 0.003 µM): 18.1%
- viability, T/C (second compound 10 µM, first compound 0.00949 µM): 16%
- viability, T/C (second compound 10 µM, first compound 0.03 µM): 13.6%
- viability, T/C (second compound 10 µM, first compound 0.0949 µM): 10.9%
- viability, T/C (second compound 10 µM, first compound 0.3 µM): 9.95%
